Measurements published in patent publication US20240116985A1, “STAPLED PEPTIDES AND METHODS THEREOF” (priority 2020, published 2024).
Where two headings read alike, the source gives them in different places.

Assays:
[1] = target: T1, full-length beta-Catenin (Uniprot ID P35222) (Homo sapiens, UniProt P35222); assay: Fluorescence polarization IC50 (beta-catenin / 5FAM-TCF4 10-53 competition); format: binding
T1 construct: 10 nM full-length beta-Catenin (Uniprot ID P35222)
T1 sequence (P35222 1-781): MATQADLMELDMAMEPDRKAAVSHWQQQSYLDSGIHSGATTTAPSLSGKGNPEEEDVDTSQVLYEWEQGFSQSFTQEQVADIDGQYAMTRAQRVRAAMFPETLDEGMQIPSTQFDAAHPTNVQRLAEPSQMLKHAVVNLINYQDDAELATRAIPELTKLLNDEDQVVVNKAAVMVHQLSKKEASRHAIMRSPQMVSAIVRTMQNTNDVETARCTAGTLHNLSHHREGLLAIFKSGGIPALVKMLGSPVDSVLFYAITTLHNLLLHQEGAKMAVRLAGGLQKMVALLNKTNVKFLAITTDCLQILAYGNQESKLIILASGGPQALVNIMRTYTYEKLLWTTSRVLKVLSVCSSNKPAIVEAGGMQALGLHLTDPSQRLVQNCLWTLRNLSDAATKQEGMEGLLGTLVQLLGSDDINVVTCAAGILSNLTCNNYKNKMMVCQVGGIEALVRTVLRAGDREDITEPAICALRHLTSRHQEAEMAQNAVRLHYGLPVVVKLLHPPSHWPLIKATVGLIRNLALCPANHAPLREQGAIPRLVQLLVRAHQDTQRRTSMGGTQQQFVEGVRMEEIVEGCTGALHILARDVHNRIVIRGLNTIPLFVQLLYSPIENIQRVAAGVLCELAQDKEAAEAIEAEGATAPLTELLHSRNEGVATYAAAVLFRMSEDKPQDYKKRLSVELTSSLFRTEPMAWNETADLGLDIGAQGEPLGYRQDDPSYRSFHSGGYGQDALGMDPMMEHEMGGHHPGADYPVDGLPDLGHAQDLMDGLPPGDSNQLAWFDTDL

CHI Log D procedure = format: physicochemical; conditions: for CHI Log D: pH 7.4; for chromatographic logD: pH 7.4, CHI Log D
[2] = Table E2-1, read-out: beta-Catenin FP IC50
[3] = fluorescence polarization, beta-catenin, read-out: FP EC50
[4] = fluorescence polarization, read-out: beta-Catenin FP IC50

Row | IC50 [1, 2] [µM] | IC50 [1, 3] [µM] | CHI Log D (CHI Log D procedure) | chromatographic logD (CHI Log D procedure) | IC50 [1, 4] [µM] | Compound
1 | 4.2 | 4.2 | 2.055 | – | – | CC(=O)N1CCC[C@]12CC=CCCCC1(CCCC=CCCCCCC[C@@](C)(C(=O)N[C@@H](Cc3ccccc3)C(=O)N[C@@H](Cc3c[nH]c4ccccc34)C(=O)N[C@@H](CCC(N)=O)C(N)=O)NC(=O)[C@H](C(C)C)NC(=O)[C@H](Cc3cccc(Cl)c3)NC(=O)[C@H](C)NC(=O)[C@H](C)NC(=O)[C@H](CC(=O)O)NC(=O)[C@H](CC(=O)O)NC1=O)NC(=O)[C@H](C)NC(=O)[C@H](CC(=O)O)NC2=O (stereo partly drawn) [I-307, Ac-PL3-Asp-Ala-B5-Asp-Asp-Ala-Ala-3C1F-Val-S8-Phe-Trp-Gln-NH2]
2 | 5 | – | – | 2.02 | – | CC(=O)N1CCC[C@]12CC=CCCCC1(CCCC=CCCCCCC[C@@](C)(C(=O)N[C@@H](Cc3ccccc3)C(=O)N[C@@H](Cc3c[nH]c4ccccc34)C(=O)N[C@@H](CCC(N)=O)C(N)=O)NC(=O)[C@H](C(C)C)NC(=O)[C@H](Cc3ccccc3F)NC(=O)[C@H](C)NC(=O)[C@H](C)NC(=O)[C@H](CC(=O)O)NC(=O)[C@H](CC(=O)O)NC1=O)NC(=O)[C@H](C)NC(=O)[C@H](CC(=O)O)NC2=O (stereo partly drawn) [I-317, Ac-PL3-Asp-Ala-B5-Asp-Asp-Ala-Ala-2FF-Val-S8-Phe-Trp-Gln-NH2]
3 | 1.44 | 1.44 | 2.084 | – | – | CC(=O)N1CCC[C@]12CC=CCCCC1(CCCC=CCCCCCC[C@@](C)(C(=O)N[C@@H](Cc3ccccc3)C(=O)N[C@@H](Cc3csc4ccccc34)C(=O)N[C@@H](CCC(N)=O)C(N)=O)NC(=O)[C@H](C)NC(=O)[C@H](Cc3ccccc3C)NC(=O)[C@H](C)NC(=O)[C@H](C)NC(=O)[C@H](CC(=O)O)NC(=O)[C@H](CC(=O)O)NC1=O)NC(=O)[C@H](C)NC(=O)[C@H](CC(=O)O)NC2=O (stereo partly drawn) [I-366, Ac-PL3-Asp-Ala-B5-Asp-Asp-Ala-Ala-2MeF-Ala-S8-Phe-BztA-Gln-NH2]
4 | 0.177 | – | – | 2.15 | – | CC(=O)N1CCC[C@]12CC=CCCCC1(CCCC=CCCCCCC[C@@](C)(C(=O)N[C@@H](Cc3ccccc3C)C(=O)N[C@@H](Cc3csc4ccccc34)C(=O)N[C@@H](CCC(N)=O)C(N)=O)NC(=O)[C@H](C)NC(=O)[C@H](Cc3ccccc3)NC(=O)[C@H](C)NC(=O)[C@H](C)NC(=O)[C@H](CC(=O)O)NC(=O)[C@H](CC(=O)O)NC1=O)NC(=O)[C@H](C)NC(=O)[C@H](CC(=O)O)NC2=O (stereo partly drawn) [I-367, Ac-PL3-Asp-Ala-B5-Asp-Asp-Ala-Ala-Phe-Ala-S8-2MeF-BztA-Gln-NH2]
5 | 5 | – | – | 2.17 | – | CC(=O)N1CCC[C@]12CC=CCCCC1(CCCC=CCCCCCC[C@@](C)(C(=O)N[C@@H](Cc3ccccc3)C(=O)N[C@@H](Cc3cccc4ccc(F)cc34)C(=O)N[C@@H](CCC(N)=O)C(N)=O)NC(=O)[C@H](C(C)C)NC(=O)[C@H](Cc3ccccc3)NC(=O)[C@H](C)NC(=O)[C@H](C)NC(=O)[C@H](CC(=O)O)NC(=O)[C@H](CC(=O)O)NC1=O)NC(=O)[C@H](C)NC(=O)[C@H](CC(=O)O)NC2=O (stereo partly drawn) [I-368, Ac-PL3-Asp-Ala-B5-Asp-Asp-Ala-Ala-Phe-Val-S8-Phe-7F1NapA-Gln-NH2]
6 | – | – | – | 3.86 | 5 | CC(=O)N1CCC[C@]12CC=CCCCC1(CCCC=CCCCCCC[C@@](C)(C(=O)N[C@@H](Cc3cc(F)cc(F)c3)C(=O)N[C@@H](Cc3csc4ccccc34)C(=O)N[C@@H](CCC(N)=O)C(N)=O)NC(=O)[C@H](C(C)C)NC(=O)[C@H](Cc3ccccc3)NC(=O)[C@H](C)NC(=O)[C@H](C)NC(=O)[C@H](CCC(=O)O)NC(=O)[C@H](CC(=O)O)NC1=O)NC(=O)[C@H](C)NC(=O)[C@H](CC(=O)O)NC2=O (stereo partly drawn) [I-394, Ac-PL3-Asp-Ala-B5-Asp-Glu-Ala-Ala-Phe-Val-S8-35FF-BztA-Gln-NH2]
7 | – | – | – | 4.07 | 5 | CC(=O)N1CCC[C@]12CC=CCCCC1(CCCC=CCCCCCC[C@@](C)(C(=O)N[C@@H](Cc3cccc(C)c3)C(=O)N[C@@H](Cc3csc4ccccc34)C(=O)N[C@@H](CCC(N)=O)C(N)=O)NC(=O)[C@H](C(C)C)NC(=O)[C@H](Cc3ccccc3)NC(=O)[C@H](C)NC(=O)[C@H](C)NC(=O)[C@H](CCC(=O)O)NC(=O)[C@H](CC(=O)O)NC1=O)NC(=O)[C@H](C)NC(=O)[C@H](CC(=O)O)NC2=O (stereo partly drawn) [I-395, Ac-PL3-Asp-Ala-B5-Asp-Glu-Ala-Ala-Phe-Val-S8-3MeF-BztA-Gln-NH2]
8 | – | 3.43 | 2.819 | – | 3.43 | CC(=O)N1CCC[C@]12CC=CCCCC1(CCCC=CCCCCCC[C@@](C)(C(=O)N[C@@H](Cc3cccc(F)c3)C(=O)N[C@@H](Cc3csc4ccccc34)C(=O)N[C@@H](CCC(N)=O)C(N)=O)NC(=O)[C@H](C(C)C)NC(=O)[C@H](Cc3ccccc3)NC(=O)[C@H](C)NC(=O)[C@H](C)NC(=O)[C@H](Cc3c[nH]cn3)NC(=O)[C@H](CC(=O)O)NC1=O)NC(=O)[C@H](C)NC(=O)[C@H](CC(=O)O)NC2=O (stereo partly drawn) [I-396, Ac-PL3-Asp-Ala-B5-Asp-His-Ala-Ala-Phe-Val-S8-3FF-BztA-Gln-NH2]
9 | – | 2.23 | 2.828 | – | 2.23 | CC(=O)N1CCC[C@]12CC=CCCCC1(CCCC=CCCCCCC[C@@](C)(C(=O)N[C@@H](Cc3cccc(F)c3)C(=O)N[C@@H](Cc3csc4ccccc34)C(=O)N[C@@H](CCC(N)=O)C(N)=O)NC(=O)[C@H](C(C)C)NC(=O)[C@H](Cc3ccccc3)NC(=O)[C@H](C)NC(=O)[C@H](C)NC(=O)[C@H](Cc3c[nH]cn3)NC(=O)[C@H](CC(=O)O)NC1=O)NC(=O)[C@H](C)NC(=O)[C@H](CC(=O)O)NC2=O (stereo partly drawn) [I-397, Ac-PL3-Asp-Ala-B5-Asp-His-Ala-Ala-Phe-Val-S8-3FF-BztA-Gln-NH2]
10 | – | – | – | 2.52 | 2.5 | CC(=O)N1CCC[C@]12CC=CCCCC1(CCCC=CCCCCCC[C@@](C)(C(=O)N[C@@H](Cc3cccc(F)c3)C(=O)N[C@@H](Cc3csc4ccccc34)C(=O)N[C@@H](CCC(N)=O)C(N)=O)NC(=O)[C@H](CCC(N)=O)NC(=O)[C@H](Cc3ccccc3)NC(=O)[C@H](C)NC(=O)[C@H](C)NC(=O)[C@H](Cc3c[nH]cn3)NC(=O)[C@H](CC(=O)O)NC1=O)NC(=O)[C@H](C)NC(=O)[C@H](CC(=O)O)NC2=O (stereo partly drawn) [I-399, Ac-PL3-Asp-Ala-B5-Asp-His-Ala-Ala-Phe-Gln-S8-3FF-BztA-Gln-NH2]
11 | – | – | – | 1.92 | 3.59 | CC(=O)N1CCC[C@]12CC=CCCCC1(CCCC=CCOC(=O)N(C)CCC[C@@](C)(C(=O)N[C@@H](Cc3cccc(F)c3)C(=O)N[C@@H](Cc3csc4ccccc34)C(=O)N[C@@H](CCC(N)=O)C(N)=O)NC(=O)[C@H](CCC(N)=O)NC(=O)[C@H](Cc3ccccc3)NC(=O)[C@H](C)NC(=O)[C@H](C)NC(=O)[C@H](Cc3c[nH]cn3)NC(=O)[C@H](CC(=O)O)NC1=O)NC(=O)[C@H](C)NC(=O)[C@H](CC(=O)O)NC2=O (stereo partly drawn) [I-400, Ac-PL3-Asp-Ala-B5-Asp-His-Ala-Ala-Phe-Gln-SeN-3FF-BztA-Gln-NH2]
12 | – | – | – | 2.28 | 0.134 | CC(=O)N1CCC[C@]12CC=CCCCC1(CCCC=CCCCCCC[C@@](C)(C(=O)N[C@@H](Cc3cccc(F)c3)C(=O)N[C@@H](Cc3csc4ccccc34)C(=O)N[C@@H](CCC(N)=O)C(N)=O)NC(=O)[C@H](CCC(N)=O)NC(=O)[C@H](Cc3cccs3)NC(=O)[C@H](C)NC(=O)[C@H](C)NC(=O)[C@H](CCC(=O)O)NC(=O)[C@H](CC(=O)O)NC1=O)NC(=O)[C@H](C)NC(=O)[C@H](CC(=O)O)NC2=O (stereo partly drawn) [I-401, Ac-PL3-Asp-Ala-B5-Asp-Glu-Ala-Ala-2Thi-Gln-S8-3FF-BztA-Gln-NH2]
13 | – | – | – | 3.39 | 5 | CC(=O)N1CCC[C@]12CC=CCCCC1(CCCC=CCCCCCC[C@@](C)(C(=O)N[C@@H](Cc3cccc(F)c3)C(=O)N[C@@H](Cc3csc4ccccc34)C(=O)N[C@@H](CCC(N)=O)C(N)=O)NC(=O)[C@H](C(C)C)NC(=O)[C@H](Cc3ccccc3)NC(=O)[C@H](C)NC(=O)[C@H](C)NC(=O)[C@H](Cc3cccs3)NC(=O)[C@H](CC(=O)O)NC1=O)NC(=O)[C@H](C)NC(=O)[C@H](CC(=O)O)NC2=O (stereo partly drawn) [I-402, Ac-PL3-Asp-Ala-B5-Asp-2Thi-Ala-Ala-Phe-Val-S8-3FF-BztA-Gln-NH2]
14 | – | – | – | 2.87 | 2.13 | CC(=O)N1CCC[C@]12CC=CCCCC1(CCCC=CCCCCCC[C@@](C)(C(=O)N[C@@H](Cc3cccc(F)c3)C(=O)N[C@@H](Cc3csc4ccccc34)C(=O)N[C@@H](CCC(N)=O)C(N)=O)NC(=O)[C@H](C(C)C)NC(=O)[C@H](Cc3ccccc3)NC(=O)[C@H](C)NC(=O)[C@H](C)NC(=O)[C@H](Cc3cn(C)cn3)NC(=O)[C@H](CC(=O)O)NC1=O)NC(=O)[C@H](C)NC(=O)[C@H](CC(=O)O)NC2=O (stereo partly drawn) [I-403, Ac-PL3-Asp-Ala-B5-Asp-1meH-Ala-Ala-Phe-Val-S8-3FF-BztA-Gln-NH2]
